≈ marks a conversion by molar mass, not a printed value. Where two headings read alike, the source gives them in different places.
Key:
influenzavirus A2/Adachi = assay: Anti-influenzavirus activity in mice; settings: up to 21 days
acute toxicity in mice = settings: mouse, in vivo, day 21
Coxsackie virus B1 [1] = assay: Anti-Coxsackie virus activity, lethal infection in mice; settings: Mus musculus, 504 h, read-out: Survival
Coxsackie virus B1 [2] = assay: Inhibition of viral cytopathogenic effect in HeLa cells (Coxsackie virus B1); type: cell-based; settings: for IC50: HeLa, 24 h, read-out: IC50 Coxsackie virus B1
rhinovirus HGP = assay: Inhibition of viral cytopathogenic effect in HeLa cells (rhinovirus HGP); type: cell-based; settings: Enterovirus, 48 h, read-out: IC50 rhinovirus HGP
rhinovirus type 3 = assay: in vitro antiviral spectrum; type: cell-based; settings: Enterovirus; rhinovirus type 3; read-out: Minimum inhibitory concentration
ECHO virus type 11 = assay: in vitro antiviral spectrum; type: cell-based; settings: read-out: Minimum inhibitory concentration
rhinovirus type 53 = assay: in vitro antiviral spectrum; type: cell-based; settings: Enterovirus; rhinovirus type 53; read-out: Minimum inhibitory concentration
rhinovirus type 47 = assay: in vitro antiviral spectrum; type: cell-based; settings: Enterovirus; rhinovirus type 47; read-out: Minimum inhibitory concentration
rhinovirus type 21 = assay: in vitro antiviral spectrum; type: cell-based; settings: Enterovirus; rhinovirus type 21; read-out: Minimum inhibitory concentration
rhinovirus type 32 = assay: in vitro antiviral spectrum; type: cell-based; settings: Enterovirus; rhinovirus type 32; read-out: Minimum inhibitory concentration
ECHO virus type 19 = assay: in vitro antiviral spectrum; type: cell-based; settings: read-out: Minimum inhibitory concentration
rhinovirus type 17 = assay: in vitro antiviral spectrum; type: cell-based; settings: Enterovirus; rhinovirus type 17; read-out: Minimum inhibitory concentration
rhinovirus type 16 = assay: in vitro antiviral spectrum; type: cell-based; settings: Enterovirus; rhinovirus type 16; read-out: Minimum inhibitory concentration
rhinovirus type 39 = assay: in vitro antiviral spectrum; type: cell-based; settings: Enterovirus; rhinovirus type 39; read-out: Minimum inhibitory concentration
rhinovirus type 26 = assay: in vitro antiviral spectrum; type: cell-based; settings: Enterovirus; rhinovirus type 26; read-out: Minimum inhibitory concentration
rhinovirus type 9 = assay: in vitro antiviral spectrum; type: cell-based; settings: Enterovirus; rhinovirus type 9; read-out: Minimum inhibitory concentration
ECHO virus type 9 = assay: in vitro antiviral spectrum; type: cell-based; settings: read-out: Minimum inhibitory concentration
rhinovirus type 36 = assay: in vitro antiviral spectrum; type: cell-based; settings: Enterovirus; rhinovirus type 36; read-out: Minimum inhibitory concentration
rhinovirus type 50 = assay: in vitro antiviral spectrum; type: cell-based; settings: Enterovirus; rhinovirus type 50; read-out: Minimum inhibitory concentration
[3] = system: rhinoviruses HGP, 1A and Coxsackie virus B1; assay: Inhibition of viral replication in HeLa cells; type: cell-based; settings: concentrations of 0.5 to 2 μg/ml, HeLa cells (FIG. 1)
poliovirus type 1 = assay: microbe, parasite or virus in culture; type: cell-based; settings: Enterovirus C, read-out: Minimum inhibitory concentration
rhinovirus type 44 = assay: in vitro antiviral spectrum; type: cell-based; settings: Enterovirus; rhinovirus type 44; read-out: Minimum inhibitory concentration
rhinovirus type 14 = assay: in vitro antiviral spectrum; type: cell-based; settings: Enterovirus; rhinovirus type 14; read-out: Minimum inhibitory concentration
rhinovirus type 2 = assay: in vitro antiviral spectrum; type: cell-based; settings: Enterovirus; rhinovirus type 2; read-out: Minimum inhibitory concentration
HeLa cell = HeLa cell growth; type: cell-based; settings: 0.5 to 2 μg/ml
rhinovirus type 55 = assay: in vitro antiviral spectrum; type: cell-based; settings: Enterovirus; rhinovirus type 55; read-out: Minimum inhibitory concentration
Coxsackie virus A21 = assay: in vitro antiviral spectrum; type: cell-based; settings: read-out: Minimum inhibitory concentration
rhinovirus type 1A = assay: in vitro antiviral spectrum; type: cell-based; settings: Enterovirus; rhinovirus type 1A; read-out: Minimum inhibitory concentration
rhinovirus type 13 = assay: in vitro antiviral spectrum; type: cell-based; settings: Enterovirus; rhinovirus type 13; read-out: Minimum inhibitory concentration
rhinovirus type 34 = assay: in vitro antiviral spectrum; type: cell-based; settings: Enterovirus; rhinovirus type 34; read-out: Minimum inhibitory concentration
ECHO virus type 12 = assay: in vitro antiviral spectrum; type: cell-based; settings: read-out: Minimum inhibitory concentration
rhinovirus type 4 = assay: in vitro antiviral spectrum; type: cell-based; settings: Enterovirus; rhinovirus type 4; read-out: Minimum inhibitory concentration
rhinovirus type 30 = assay: in vitro antiviral spectrum; type: cell-based; settings: Enterovirus; rhinovirus type 30; read-out: Minimum inhibitory concentration
[4] = ip, single dose i.p., dissolved in dimethyl sulfoxide, read-out: LD50 i.p.
[5] = po, single dose p.o., suspended in 0.5% carboxymethylcellulose, read-out: LD50 p.o.

NC12CC3CC(CC(C3)C1)C2 [amantadine, reference compound]
Survivals (%) (influenzavirus A2/Adachi; 20 mg/kg × 9, i.p.): 0% | Survivals (influenzavirus A2/Adachi; 40 mg/kg × 9, i.p., survivors/total): 2/7 | Survivals (%) (influenzavirus A2/Adachi; 40 mg/kg × 9, i.p.): 29%

COc1cc(O)c2c(=O)c(OC)c(-c3ccc(OC(=O)[C@@H](N)CCC(N)=O)c(OC)c3)oc2c1 [4'-(L-glutaminyloxy)-5-hydroxy-3,3',7-trimethoxyflavone]
LD50 at 504 h (acute toxicity in mice; [4]): > 1000 mg/kg | LD50 at 504 h (acute toxicity in mice; [5]): > 5000 mg/kg | responders at 10 mg/kg (Coxsackie virus B1 [1]; iv): 54% | IC50 (Coxsackie virus B1 [2]): 0.25 to 0.5 µg/mL (≈ 0.529 to 1.06 µM) | IC50 (rhinovirus HGP; 50% inhibition of viral c.p.e., HeLa cells, 2 days at 33° C.): 0.25 to 0.5 µg/mL (≈ 0.529 to 1.06 µM)

COc1cc(O)c2c(=O)c(OC)c(-c3ccc(O)c(OC)c3)oc2c1 [4',5-dihydroxy-3,3',7-trimethoxyflavone]
MIC (rhinovirus type 3): 0.1 µg/mL (≈ 0.29 µM) | MIC (ECHO virus type 11): 0.1 to 0.3 µg/mL (≈ 0.29 to 0.871 µM) | MIC (rhinovirus type 53): 0.1 µg/mL (≈ 0.29 µM) | MIC (rhinovirus type 47): 0.3 µg/mL (≈ 0.871 µM) | MIC (rhinovirus type 21): 0.3 µg/mL (≈ 0.871 µM) | MIC (rhinovirus type 32): 0.1 µg/mL (≈ 0.29 µM) | MIC (ECHO virus type 19): 0.1 to 0.3 µg/mL (≈ 0.29 to 0.871 µM) | MIC (rhinovirus type 17): 0.3 µg/mL (≈ 0.871 µM) | MIC (rhinovirus type 16): 0.3 µg/mL (≈ 0.871 µM) | MIC (rhinovirus type 39): 0.1 µg/mL (≈ 0.29 µM) | MIC (rhinovirus type 26): 0.3 µg/mL (≈ 0.871 µM) | LD50 at 504 h (acute toxicity in mice; [4]): > 1000 mg/kg | LD50 at 504 h (acute toxicity in mice; [5]): > 5000 mg/kg | responders at 10 mg/kg (Coxsackie virus B1 [1]; ip): 10% | responders at 20 mg/kg (Coxsackie virus B1 [1]; ip): 20% | responders at 20 mg/kg (Coxsackie virus B1 [1]; po): 10% | responders at 40 mg/kg (Coxsackie virus B1 [1]; po): 30% | MIC (rhinovirus type 9): 0.1 µg/mL (≈ 0.29 µM) | MIC (ECHO virus type 9): 0.1 to 0.3 µg/mL (≈ 0.29 to 0.871 µM) | MIC (rhinovirus type 36): 0.3 µg/mL (≈ 0.871 µM) | MIC (rhinovirus type 50): 0.3 µg/mL (≈ 0.871 µM) | reduction of viral replication [3]: reduces the viral replication quite considerably | MIC (poliovirus type 1): 0.1 to 0.3 µg/mL (≈ 0.29 to 0.871 µM) | MIC (Coxsackie virus B1 [2]; Coxsackie virus B1, read-out: Minimum inhibitory concentration): 0.1 to 0.2 µg/mL (≈ 0.29 to 0.581 µM) | IC50 (Coxsackie virus B1 [2]): 0.1 to 0.2 µg/mL (≈ 0.29 to 0.581 µM) | MIC (rhinovirus type 44): 0.05 to 0.5 µg/mL (≈ 0.145 to 1.45 µM) | MIC (rhinovirus type 14): 0.1 µg/mL (≈ 0.29 µM) | MIC (rhinovirus type 2): 0.1 µg/mL (≈ 0.29 µM) | effect on HeLa cell growth (HeLa cell): HeLa cell growth is not affected | MIC (rhinovirus type 55): 0.3 µg/mL (≈ 0.871 µM) | MIC (Coxsackie virus A21): 0.1 to 0.3 µg/mL (≈ 0.29 to 0.871 µM) | MIC (rhinovirus type 1A): 0.03 µg/mL (≈ 0.0871 µM) | MIC (rhinovirus type 13): 0.3 to 1 µg/mL (≈ 0.871 to 2.9 µM) | MIC (rhinovirus type 34): 0.3 µg/mL (≈ 0.871 µM) | MIC (ECHO virus type 12): 0.1 to 0.3 µg/mL (≈ 0.29 to 0.871 µM) | MIC (rhinovirus type 4): 1 µg/mL (≈ 2.9 µM) | IC50 (rhinovirus HGP; HeLa): 0.1 µg/mL (≈ 0.29 µM) | MIC (rhinovirus type 30): 0.03 to 0.1 µg/mL (≈ 0.0871 to 0.29 µM)

Source: patent publication US4352792A, “3-Alkoxyflavone antiviral agents” (priority 1979, dated 1982)
